In article PMC6308159 (Frontiers in Public Health, 2018):
“And” between values parts separate entries of the source, which are not always exact repeats. Equal entries are not always repeated. Where two headings read alike, the source gives them in different places.

Tests used:
[1] = tested on: primary human endothelial colony-forming cells (ECFCs), cord blood clones
[2] = tested on: polyclonal ECFC line CB002; assay type: cell-based, human; details: 0.390625 μM; 48 h
[3] = tested on: primary human endothelial colony-forming cells (ECFCs), cord blood clones; assay: cells; details: read-out: IC50, range between individual ECFC clones
[4] = cited from earlier work
in vitro = details: human
[5] = read-out: IC50, range between individual ECFC clones

In the case of `CCC[CH2][Sn]([Cl])([CH2]CCC)[CH2]CCC` [TBT, Tributyltin Chloride], the “IC10, range between individual ECFC clones” value [1] is reported as 0.2 to 0.5 µM, the “average IC10 (mean and standard deviation)” value [1] is reported as 0.3 ± 0.11 µM and the IC50 [1, 5] is reported as 1.2 to 2.3 µM.
For `[Cl-].[Cl-].[Zn+2]` [ZnCl2, Zinc Chloride], the cytotoxicity [1] was “cytotoxic” and the effect on viability [1] was “did not affect viability”.
With `O=[As][O-].[Na+]` [NaAsO2, Sodium (meta)arsenite] the “IC10, range between individual ECFC clones” value [1] was 1.1 to 5.0 µM, the “average IC10 (mean and standard deviation)” value [1] was 2.4 ± 1.16 µM and the cells killed [1] was 100%. For the same compound, the IC50 ([1]; read-out: IC50 ± SD) was 7.5 ± 4.7 µM and the “raw CFDA fluorescence per well” value [2] was 4689 and 4248 and 2550 and 2844 and 2369 and 3435.
With `CC1=C(C/C=C(\C)CCC[C@H](C)CCC[C@H](C)CCCC(C)C)C(=O)c2ccccc2C1=O` [Phytonadione, phytonadione, reference compound] the “effect on ECFC viability / toxicity” value [1] was “not toxic”.
With `O.O.O.O.O.O.O.O=[As]([O-])([O-])O.[Na+].[Na+]` [Na2HAsO4, Sodium arsenate dibasic heptahydrate] the cells killed [1] was 0% and the “effect on ECFC viability / toxicity” value [1] was “no effect”.
For `O.[Cl][Cd][Cl]` [CdCl2, Cadmium Chloride Hydrate], the “IC10, range between individual ECFC clones” value [1] was 4.2 to 9.3 µM, the “average IC10 (mean and standard deviation)” value [1] was 6.7 ± 1.85 µM and the cells killed [1] was ~100%. For the same compound, the cytotoxicity [1] was “not cytotoxic” and the IC50 [1, 5] was 12.3 to 18 µM.
For `CC1=CC(=O)c2ccccc2C1=O` [Menadione, 2-methyl-1,4-naphthoquinone, reference compound], the “IC10, range between individual ECFC clones” value [1] was 5.6 to 19.0 µM, the “average IC10 (mean and standard deviation)” value [1] was 11.5 ± 5.03 µM and the cells killed [1] was 100%. The live cells [1] was < 50%, the IC50 [3] was 8 to 26.3 µM and the blood level ([4]; observed in a clinical setting) was 0.5 to 2 µM. For the same compound, the “level found in the blood” value ([4]; volunteers after ingestion of 10 mg menadione sodium bisulfite tablets) was 20 nM and the viability at 10 µM (in vitro) was 100%.
